From patent publication US20250154198A1, “PEPTIDE INHIBITORS OF INTERLEUKIN-23 RECEPTOR” (Zealand Pharma A/S, priority 2021, published 2025)
Where two headings read alike, the source gives them in different places. Where a SMILES comes first, the peptide text is derived from it.

Columns and labels:
human IL-23R = biological target: T1, human IL-23R (Homo sapiens, UniProt Q5VWK5); test: Binding assay (NanoBRET displacement of fluorophore-labelled reference compound) for estimating binding affinity to human IL-23R
T1 construct: UniProtKB—Q5VWK5, amino acids 22-629; secretion signal of the plasmid (Promega N1371); expressed in transfected cells
T1 sequence (Q5VWK5 22-629): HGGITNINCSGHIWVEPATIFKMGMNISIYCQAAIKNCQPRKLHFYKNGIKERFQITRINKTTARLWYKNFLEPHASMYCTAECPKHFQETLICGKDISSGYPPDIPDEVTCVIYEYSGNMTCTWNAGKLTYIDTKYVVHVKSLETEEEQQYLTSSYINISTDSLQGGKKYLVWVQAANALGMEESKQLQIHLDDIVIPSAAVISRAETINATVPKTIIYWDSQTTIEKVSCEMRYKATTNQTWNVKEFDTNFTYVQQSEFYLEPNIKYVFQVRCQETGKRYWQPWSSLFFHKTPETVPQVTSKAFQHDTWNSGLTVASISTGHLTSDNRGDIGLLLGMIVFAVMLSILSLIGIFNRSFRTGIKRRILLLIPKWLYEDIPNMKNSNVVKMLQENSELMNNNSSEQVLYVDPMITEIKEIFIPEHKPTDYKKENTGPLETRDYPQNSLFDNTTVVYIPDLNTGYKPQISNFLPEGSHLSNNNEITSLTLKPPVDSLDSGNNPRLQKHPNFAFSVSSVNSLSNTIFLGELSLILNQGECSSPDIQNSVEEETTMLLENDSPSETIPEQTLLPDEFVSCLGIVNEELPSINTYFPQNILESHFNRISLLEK

[1] = biological target: IL-23 mediated phospho-STAT3 formation in DB cells (Homo sapiens, UniProt Q5VWK5); test: Functional inhibition of IL-23 mediated STAT3 signalling (phospho-STAT3 Tyr705 MSD) in DB cells; format: cell-based; conditions: DB cells, read-out: IC50 (pSTAT3)
Excerpt: Functional Inhibition of IL-23 Mediated STAT3 Signalling by Compounds
Upon binding of IL-23, the IL-23R forms a heterodimer signalling complex together with IL-12R β1, which through the JAK2/STAT3 pathway promotes phosphorylation of STAT3 to form phospho-STAT3.
The assay was used to quantify the functional antagonism of a compound and to rank order the inhibitor compounds according to their potency. For compounds tested in this assay, the response was normalized relative to control values to calculate the IC50 and maximal inhibitory response from a concentration response curve of the compound in presence of a fixed concentration of human IL-23.
The assay procedure was as follows. […] Following preincubation of the DB cells with inhibitor for 15 min in a cell incubator (37° C., 5% CO2), 20 μL of the prepared 3× the EC80 of hIL-23 solution was added to each well and incubated for 90 min in a cell incubator (37° C., 5% CO2). For some wells buffer only or IL-23 only corresponding to the EC80 was added to obtain readouts needed for normalization. To terminate the assay, the plate was spun at 1000 G for 5 min to pellet cells, the supernatant removed using an 8-channel manual pipette, and then added 50 μL/well Complete Lysis Buffer from the MSD STAT3 kit (Cat #K150SVD, Mesoscale) to the cell pellet. To completely lyse cells to release phospho-STAT3 for detection, the plate was shaken for 10 min at room temperature (500 rpm) sealed with aluminum foil and placed at −80° C. for a minimum of 15 min. Detection of the phospho-STAT3 level in the cell lysate from the individual wells was determined using the MSD STAT3 kit (Cat #K150SVD, Mesoscale) and read on a Meso QuickPlex SQ 120 plate reader (Mesoscale).
For data analysis raw data counts from the Meso QuickPlex SQ 120 plate reader were normalized relative to the response by the EC80 of hIL-23 alone (no compound added) and the buffer level. Compound potency (IC50) and maximal inhibitory response (% inhibition) were estimated by computer-aided curve fitting using a 4-parameter logistic (4PL) non-linear model.

[2] = Table 3-1, read-out: Ki hIL-23R
[3] = Table 2-7b, read-out: Ki IL-23R

SMILES	Ki (human IL-23R; [2]) [nM]	IC50 ([1]; Table 3-1) [nM]	Ki (human IL-23R; [3]) [nM]	IC50 ([1]; Table 2-7b) [nM]	also measured
CC(=O)N[C@H]1CCC(=O)NCCCC[C@@H](C(=O)N[C@@H](CCCNC(=N)N)C(N)=O)NC(=O)[C@H](CC(C)C)NC(=O)[C@H](Cc2c[nH]c3ccccc23)NC(=O)[C@H](Cc2c[nH]c3ccccc23)NC(=O)[C@@H]2CSCC(=O)CSC[C@H](NC(=O)[C@H](CO)NC1=O)C(=O)N[C@@H](Cc1c[nH]c3ccccc13)C(=O)N[C@@H](CCC(N)=O)C(=O)N2 [Compound 10, [Ac]-E(1c)SC(2a)WQC(2a)WWLK(1c)R-[NH2]] (HELM PEPTIDE1{[ac].E.S.C.W.Q.C.W.W.L.K.R.[am]}|CHEM1{[O=C(C[*:1])C[*:2]]}$PEPTIDE1,PEPTIDE1,2:R3-11:R3|PEPTIDE1,CHEM1,4:R3-1:R1|PEPTIDE1,CHEM1,7:R3-1:R2$$$V2.0)	–	–	–	–	Ki (human IL-23R; Table 2-4b, read-out: Ki IL-23R): 101 nM; IC50 ([1]; Table 2-4b): 617 nM
CC(=O)N[C@@H](CC(=O)O)C(=O)N[C@H]1CCC(=O)NCCCC[C@@H](C(=O)N[C@@H](CCCNC(=N)N)C(N)=O)NC(=O)[C@H](CC(C)C)NC(=O)[C@H](Cc2c[nH]c3ccccc23)NC(=O)[C@H](Cc2c[nH]c3ccccc23)NC(=O)[C@@H]2CSCC(=O)CSC[C@H](NC(=O)[C@H](CO)NC1=O)C(=O)N[C@@H](C)C(=O)N[C@@H](CCC(N)=O)C(=O)N2 [Compound 13, [Ac]-DE(1c)SC(2a)AQC(2a)WWLK(1c)R-[NH2]] (HELM PEPTIDE1{[ac].D.E.S.C.A.Q.C.W.W.L.K.R.[am]}|CHEM1{[O=C(C[*:1])C[*:2]]}$PEPTIDE1,PEPTIDE1,3:R3-12:R3|PEPTIDE1,CHEM1,5:R3-1:R1|PEPTIDE1,CHEM1,8:R3-1:R2$$$V2.0)	> 1000	> 1000	–	–	–
CC(=O)N[C@@H](CC(=O)O)C(=O)N[C@H]1CCC(=O)NCCCC[C@@H](C(=O)N[C@@H](CCCNC(=N)N)C(N)=O)NC(=O)[C@H](CC(C)C)NC(=O)[C@H](Cc2c[nH]c3ccccc23)NC(=O)[C@H](C)NC(=O)[C@@H]2CSCC(=O)CSC[C@H](NC(=O)[C@H](CO)NC1=O)C(=O)N[C@@H](Cc1c[nH]c3ccccc13)C(=O)N[C@@H](CCC(N)=O)C(=O)N2 [Compound 14, [Ac]-DE(1c)SC(2a)WQC(2a)AWLK(1c)R-[NH2]] (HELM PEPTIDE1{[ac].D.E.S.C.W.Q.C.A.W.L.K.R.[am]}|CHEM1{[O=C(C[*:1])C[*:2]]}$PEPTIDE1,PEPTIDE1,3:R3-12:R3|PEPTIDE1,CHEM1,5:R3-1:R1|PEPTIDE1,CHEM1,8:R3-1:R2$$$V2.0)	> 1000	> 1000	–	–	–
CC(=O)N[C@@H](CC(=O)O)C(=O)N[C@H]1CCC(=O)NCCCC[C@@H](C(=O)N[C@@H](CCCNC(=N)N)C(N)=O)NC(=O)[C@H](CC(C)C)NC(=O)[C@H](C)NC(=O)[C@H](Cc2c[nH]c3ccccc23)NC(=O)[C@@H]2CSCC(=O)CSC[C@H](NC(=O)[C@H](CO)NC1=O)C(=O)N[C@@H](Cc1c[nH]c3ccccc13)C(=O)N[C@@H](CCC(N)=O)C(=O)N2 [Compound 15, [Ac]-DE(1c)SC(2a)WQC(2a)WALK(1c)R-[NH2]] (HELM PEPTIDE1{[ac].D.E.S.C.W.Q.C.W.A.L.K.R.[am]}|CHEM1{[O=C(C[*:1])C[*:2]]}$PEPTIDE1,PEPTIDE1,3:R3-12:R3|PEPTIDE1,CHEM1,5:R3-1:R1|PEPTIDE1,CHEM1,8:R3-1:R2$$$V2.0)	> 1000	> 1000	–	–	–
CC(=O)N[C@@H](CC(=O)O)C(=O)N[C@H]1CCC(=O)NCCCC[C@@H](C(=O)N[C@@H](CCCNC(=N)N)C(N)=O)NC(=O)[C@H](CC(C)C)NC(=O)[C@H](Cc2c[nH]c3ccccc23)NC(=O)[C@H](Cc2c[nH]c3ccccc23)NC(=O)[C@@H]2CSCC(=O)CSC[C@H](NC(=O)[C@H](CO)NC1=O)C(=O)N[C@@H](Cc1c[nH]c3c(C)cccc13)C(=O)N[C@@H](CCC(N)=O)C(=O)N2 [Compound 16, [Ac]-DE(1c)SC(2a)[7-Me-Trp]QC(2a)WWLK(1c)R-[NH2]] (HELM PEPTIDE1{[ac].D.E.S.C.[Cc1cccc2c(C[C@H](N[*:1])C(=O)[*:2])c[nH]c12].Q.C.W.W.L.K.R.[am]}|CHEM1{[O=C(C[*:1])C[*:2]]}$PEPTIDE1,PEPTIDE1,3:R3-12:R3|PEPTIDE1,CHEM1,5:R3-1:R1|PEPTIDE1,CHEM1,8:R3-1:R2$$$V2.0)	–	–	–	–	Ki (human IL-23R; Table 2-5b, read-out: Ki IL-23R): 95.4 nM; IC50 ([1]; Table 2-5b): 461 nM
CC(=O)N[C@@H](CC(=O)O)C(=O)N[C@H]1CCCCNC(=O)CC[C@@H](C(=O)N[C@@H](CCCNC(=N)N)C(N)=O)NC(=O)[C@H](CC(C)C)NC(=O)[C@H](Cc2ccc3ccccc3c2)NC(=O)[C@H](Cc2c[nH]c3ccccc23)NC(=O)[C@@H]2CSCC(=O)CSC[C@H](NC(=O)[C@H](CO)NC1=O)C(=O)N[C@@H](Cc1c[nH]c3ccccc13)C(=O)N[C@@H](CCC(N)=O)C(=O)N2 [Compound 19, [Ac]-DK(1c)SC(2a)WQC(2a)W[2-Nal]LE(1c)R-[NH2]] (HELM PEPTIDE1{[ac].D.K.S.C.W.Q.C.W.[O=C([C@H](Cc1ccc2ccccc2c1)N[*:1])[*:2]].L.E.R.[am]}|CHEM1{[O=C(C[*:1])C[*:2]]}$PEPTIDE1,PEPTIDE1,3:R3-12:R3|PEPTIDE1,CHEM1,5:R3-1:R1|PEPTIDE1,CHEM1,8:R3-1:R2$$$V2.0)	–	–	–	–	Ki (human IL-23R; Table 2-6b, read-out: Ki IL-23R): 6.32 nM; IC50 ([1]; Table 2-6b): 32.3 nM
CC(=O)N[C@@H](CC(=O)O)C(=O)N[C@H]1CCCCNC(=O)CC[C@@H](C(=O)N[C@@H](CCCNC(=N)N)C(N)=O)NC(=O)[C@H](CC(C)C)NC(=O)[C@H](Cc2ccc3ccccc3c2)NC(=O)[C@H](Cc2c[nH]c3ccccc23)NC(=O)[C@@H]2CSCc3ccccc3CSC[C@H](NC(=O)[C@H](CO)NC1=O)C(=O)N[C@@H](Cc1c[nH]c3ccccc13)C(=O)N[C@@H](CCC(N)=O)C(=O)N2 [Compound 20, [Ac]-DK(1c)SC(2d)WQC(2d)W[2-Nal]LE(1c)R-[NH2]] (HELM PEPTIDE1{[ac].D.K.S.C.W.Q.C.W.[O=C([C@H](Cc1ccc2ccccc2c1)N[*:1])[*:2]].L.E.R.[am]}|CHEM1{[c1ccc(C[*:2])c(C[*:1])c1]}$PEPTIDE1,PEPTIDE1,3:R3-12:R3|PEPTIDE1,CHEM1,5:R3-1:R1|PEPTIDE1,CHEM1,8:R3-1:R2$$$V2.0)	–	–	24.6	79.2	–
CC(=O)N[C@@H](CC(=O)O)C(=O)N[C@H]1CCCCNC(=O)CC[C@@H](C(=O)N[C@@H](CCCNC(=N)N)C(N)=O)NC(=O)[C@H](CC(C)C)NC(=O)[C@H](Cc2ccc3ccccc3c2)NC(=O)[C@H](Cc2c[nH]c3ccccc23)NC(=O)[C@@H]2CSCc3cccc(c3)CSC[C@H](NC(=O)[C@H](CO)NC1=O)C(=O)N[C@@H](Cc1c[nH]c3ccccc13)C(=O)N[C@@H](CCC(N)=O)C(=O)N2 [Compound 21, [Ac]-DK(1c)SC(2e)WQC(2e)W[2-Nal]LE(1c)R-[NH2]] (HELM PEPTIDE1{[ac].D.K.S.C.W.Q.C.W.[O=C([C@H](Cc1ccc2ccccc2c1)N[*:1])[*:2]].L.E.R.[am]}|CHEM1{[c1cc(C[*:1])cc(C[*:2])c1]}$PEPTIDE1,PEPTIDE1,3:R3-12:R3|PEPTIDE1,CHEM1,5:R3-1:R1|PEPTIDE1,CHEM1,8:R3-1:R2$$$V2.0)	–	> 1000	634	> 1000	–
CC(=O)N[C@@H](CC(=O)O)C(=O)N[C@H]1CCCCNC(=O)CC[C@@H](C(=O)N[C@@H](CCCNC(=N)N)C(N)=O)NC(=O)[C@H](CC(C)C)NC(=O)[C@H](Cc2ccc3ccccc3c2)NC(=O)[C@H](Cc2c[nH]c3ccccc23)NC(=O)[C@@H]2CSCc3ccc(cc3)CSC[C@H](NC(=O)[C@H](CO)NC1=O)C(=O)N[C@@H](Cc1c[nH]c3ccccc13)C(=O)N[C@@H](CCC(N)=O)C(=O)N2 [Compound 22, [Ac]-DK(1c)SC(2f)WQC(2f)W[2-Nal]LE(1c)R-[NH2]] (HELM PEPTIDE1{[ac].D.K.S.C.W.Q.C.W.[O=C([C@H](Cc1ccc2ccccc2c1)N[*:1])[*:2]].L.E.R.[am]}|CHEM1{[c1cc(C[*:2])ccc1C[*:1]]}$PEPTIDE1,PEPTIDE1,3:R3-12:R3|PEPTIDE1,CHEM1,5:R3-1:R1|PEPTIDE1,CHEM1,8:R3-1:R2$$$V2.0)	–	> 1000	563	> 1000	–
